{"source": "patent US20250382556A1", "about": "“MODULATION OF THE BRANCHED-CHAIN METABOLITE CONTENT OF FRUITS AND VEGETABLES” (BOARD OF TRUSTEES OF MICHIGAN STATE UNIVERSITY, priority 2024, published 2025)", "key": {"apple fruit peel": {"test_system": "apple fruit peel", "test": "Complementation of inhibitor-treated apple peel with branched-chain precursors", "set-up": "species or system Malus x domestica Borkh.", "method": "α-Ketoacids (2-oxo acids) were fed to ‘Empire’ and ‘Jonagold’ fruit by preparing vials of excised peel tissue discs in 22-mL glass vials using 20 μL of treatment solution on the prepared paper-peel disc units. Treatment solution contained 20 mM methanol, 0.1% Tween 20, 20 mM of α-keto-β-methylvalerate (3-methyl-2-oxopentanoate), α-ketoisovalerate (3-methyl-2-oxobutanoate), or α-ketoisocaproate (4-methyl-2-oxopentanoate), and when appropriate, 1 mM rimsulfuron.\n‘Red Delicious’ apple fruit held in refrigerated air for 5 months (see above) plus 1 day at 22° C. and at an advanced ripeness stage (‘ripe’) were treated with rimsulfuron (1 mM) with 0.2% Tween 20 on day 0 of the study and for the next three consecutive days as above described. The fruit were evaluated daily for volatile emissions (see below) for eight days. On days 0, 2, 4, and 7, representative treated and untreated fruit were selected for tissue collection for metabolite analysis (see below). On day 7, samples of fruit peel were fed, as described above, with water or 20 mM isoleucine or α-keto-β-methylvalerate.\nHeadspace volatiles from small tissue samples incubated in 22 mL vials were adsorbed for 30 s using a solid-phase micro extraction (SPME) fiber (65 μm PDMS-DVB; Supelco Analytical). […]"}, "flowering quince fruit": {"test_system": "flowering quince fruit", "test": "Headspace volatile emissions of flowering quince fruit treated with AHAS inhibitor", "format": "in vivo, Chaenomeles x superba", "set-up": "key to butyl acetate emissions compared to control: —: Dash indicates no significant difference between treatments", "method": "Whole apple fruit, freshly harvested and at an early stage of ripening (‘ripening’), were held at room temperature (22° C.) and rubbed daily with 3 mL of a freshly made 1mM solution of the inhibitor rimsulfuron (N-((4,6-dimethoxypyrimidin-2-yl)aminocarbonyl)-3-(ethylsulfonyl)-2-pyridinesulfonamide, made from DuPont MATRIX® SG, 25% w/w active ingredient; 0.1% Tween 20) or water solution containing 0.1% Tween 20 before preparation with further treatments. Flowering quince fruit were smaller than the apple fruit and had 2 mL of the control and treatment solutions applied daily at 22° C. ‘Gala’, ‘Empire’, and ‘Jonagold’ apple fruit were treated for four, nine, and seven days before further preparation, respectively. Flowering quince fruit were treated for six days before analysis. Headspace volatile emissions were monitored for three or four representative fruits during the incubation/treatment period to determine appropriate times for further treatments. During method testing, 1 mM solutions of the imidazolinone imazamox was also assessed with apple fruit (2-[4,5-dihydro-4-methyl-4-(1-methylethyl)-5-oxo-1H-imidazol-2-yl]-5-(methoxymethyl)-3-pyridinecarboxylic acid, made from RAPTOR®, 12.1% w/w active ingredient; 0.1% Tween 20).\nHeadspace volatiles from small tissue samples incubated in 22 mL vials were adsorbed for 30 s using a solid-phase micro extraction (SPME) fiber (65 μm PDMS-DVB; Supelco Analytical). The SPME fiber was then directly desorbed for 1 min in the injection port of a gas chromatograph (GC; HP-6890, Hewlett-Packard) coupled to a time-of-flight mass spectrometer (MS; Pegasus II, LECO). Whole fruits and banana slices were incubated for 20 min at room temperature (22° C.) in 1-L sealed Teflon jars before a 15-s, or 3-min adsorption and 1- or 2-min desorption. Adsorption times were adjusted to ensure instrument responses were in the linear range. All desorbed volatiles were cryofocused at the beginning of the column by immersing said region of the column in liquid nitrogen. After the desorption period, the run was initiated and the liquid nitrogen removed.\nThe conditions of the system were as follows. Injection port: 200° C., splitless, ultra-purified helium (99.999%) carrier gas, front inlet flow 1.5 mL·min^−1 constant, 10 mL·min^−1 purge flow, 11.5 mL·min^−1 total flow. Oven: initial temperature 40° C. for 0 min, ramped by 43° C.·min^−1 to 185° C. for 0 min. Column: HP-5 MS, 30 m×0.25 mm i.d., 0.25 μm film thickness (Agilent). Transfer line temperature 225° C. MS: Electron ionization (−70 eV), ion source temperature 200° C., solvent delay 50 sec, m/z range 29 to 400, detector voltage 1500 V, data collection rate 20 Hz.\nCompounds were identified by comparison of the retention time and mass spectrum against authenticated reference standards and spectra (National Institute of Standards and Technology Mass Spectral Search Program Version 2.0, 2001). Volatiles were quantified by calibration with a standard of 59 authenticated, high-purity compounds (Sigma-Aldrich Co. and Fluka Chemical) including the target compounds. The standard was made by placing 0.5 μL of an equal-part mixture of the neat compounds onto a disc of filter paper before quickly placing the filter paper into a 4-L sealed flask fitted with a Mininert valve (for SPME fiber access, and allowed to vaporize for at least 6 hours. SPME adsorption and desorption times of the standard matched that of the samples quantified (e.g., 30-s adsorption, 1 min desorption when quantifying samples in 22-mL vials).\nStatistical analysis was performed using SciPy (v1.6.2), RStudio (v2023.03.0+386), or Microsoft Excel (v16.89). Against a specified value: one-tailed t-test Against two treatments: paired t-test for banana, two-sample t-test for apple and flowering quince. Against more than two treatments: Tukey's test following significant ANOVA. Analyses of branched-chain amino acids were one-tailed, all other metabolites were two-tailed. […]"}, "[1]": {"settings": "Dr. Banks Pink flowering quince"}, "[2]": {"settings": "Dr. Banks Pink flowering quince peel, 1 mM daily, six days"}}}
{"smiles": "CCS(=O)(=O)c1cccnc1S(=O)(=O)NC(=O)Nc1nc(OC)cc(OC)n1", "note": "[rimsulfuron, N-((4,6-dimethoxypyrimidin-2-yl)aminocarbonyl)-3-(ethylsulfonyl)-2-pyridinesulfonamide]", "values": [{"measurement": "ester production after feeding isoleucine or α-keto-β-methylvalerate to inhibitor-treated peels", "setting": "apple fruit peel; ripe Red Delicious, 20 mM precursor on day 7", "value": "recovery of anteiso-branched-chain esters"}, {"measurement": "2-methylbutyl and 2-methylbutanoate esters after exogenous feeding of α-keto-β-methylvalerate to inhibitor-treated fruit", "setting": "apple fruit peel; ripening Jonagold and Empire, 20 mM α-ketoacid", "value": "at least a partial rescue"}, {"measurement": "butyl acetate, ethyl butanoate, estragole, or linalool versus untreated", "setting": "flowering quince fruit; [1]", "value": "No difference"}, {"measurement": "less 2-methylpropyl acetate and 2-methylbutyl acetate than untreated fruits", "setting": "flowering quince fruit; [1]", "value": 94.6, "unit": "%"}, {"measurement": "more propyl acetate than untreated fruits", "setting": "flowering quince fruit; [1]", "value": 22.7, "unit": "fold"}, {"measurement": "2-methylbutyl acetate (ile) emissions compared to control", "setting": "flowering quince fruit; [2]", "value": "5.2 ± 3.9", "unit": "%"}, {"measurement": "2-methylpropyl acetate (val) emissions compared to control", "setting": "flowering quince fruit; [2]", "value": "1.1 ± 1.4", "unit": "%"}, {"measurement": "butyl acetate emissions compared to control", "setting": "flowering quince fruit; [2]", "value": "—"}, {"measurement": "propyl acetate emissions compared to control", "setting": "flowering quince fruit; [2]", "value": "2265.0 ± 869.0", "unit": "%"}, {"measurement": "sum of anteiso- and iso-branched-chain esters emissions compared to control", "setting": "flowering quince fruit; [2]", "value": "3.0 ± 2.4", "unit": "%"}]}
